According to patent publication US20140228440A1, “1-AMINO-ALKYLCYCLOHEXANE DERIVATIVES FOR THE TREATMENT OF INFLAMMATORY SKIN DISEASES” (MERZ PHARMA GmbH & CO. KGaA, priority 2008, published 2014):

Key:
Propionibacterium acnes = assay: Log reduction assay; assay type: cell-based; details: 3.125% solution
Procedure: In order to determine the efficacy of Neramexane against a specific microorganism population (i.e., Propionibacterium acnes), a log reduction assay is performed. The organisms are prepared by inoculating the fluid thioglycolate (FTM). The microorganism is then incubated at 35.2±2.5° C. for 24 hours. The microbial suspension is adjusted to approximately 107 to 108 colony forming units (CFU) per mL and labeled as the stock suspension. […] Then […] is transferred into 11 mL of DI water to prepare a 3.125% solution. This solution is then inoculated with the microorganism and tested at time intervals of 30 seconds, 1 minute, and 5 minutes. One milliliter from each dilution is spread plated in duplicate onto tryptic soy agar with 5% sheep blood. The plates are incubated anaerobically at 35.2±2.5° C. for a minimum of 48 hours. The same procedure is repeated for the Phosphate Buffer Saline control. After the incubation period, all plates are counted to determine the number of microorganisms remaining at each time point. The concentration of each microorganism for the control and product is calculated for each interval. The log reduction is calculated to determine the change (reduction or increase) of the microorganism population relative to a starting inoculum. The minimum required bactericidal concentration is defined as a 3 log reduction from the initial inoculum.

[1] = tested on: Propionibacterium acnes (ATCC 11828); assay: Quantitative suspension assay (bactericidal activity); assay type: cell-based; details: pH 5.5
Procedure: 1.0 ml of the bacterial test suspension (microbial count: 1.5−5.0×10^8 cfu/ml) and 1.0 ml distilled water is added to 8.0 ml of the product test solution. The stopwatch is started. At the end of the exposure time, 0.1 ml of the test mixture is added to 50 ml rinsing liquid (=test neutralization mixture, TNM, 10°). Two dilutions of the TNM are prepared by pipetting […] of TNM to 9.0 ml of tryptone-NaCl (represents a dilution 10^−2 of TNM before filtration) resp. 50 μl of TNM to 9.0 ml of tryptone-NaCl (represents a dilution 10^−3 of TNM before filtration). The TNM (in duplicate) and each of the dilutions are transferred to a membrane filter device fitted with a membrane filter (0.45 μm) and filtered immediately. Subsequently, the filter is washed with 150 ml distilled water. The membranes are transferred to agar plates. After incubation under appropriate conditions, colonies are counted and reported.
Neramexane-mesylate is tested at 4 different concentrations (w/w 0.1%, 0.5%, 2.0%, 5.0%) to assess its bactericidal activity against Propionibacterium acnes (ATCC 11828). In addition to the effect of the concentration of Neramexane, the relevance of the contact time with the bacterias is assessed at 4 different incubation times (5 min, 30 min, 6 h, 24 h).
After the desired incubation time, the complete elimination of the test compound from the assay is ensured by membrane filtration. Bacterial suspensions with a microbial count ranging from 1.5−5.0×10^8 cfu/ml are used. All assays are performed at the skin relevant pH of 5.5.
The read out is reduction of the bacterial number in the assay, expressed as log-reduction. This reduction of the bacterial count is correlated to the ability of a compound to kill the bacteria, thus, corresponding to its MBC value. A >5-fold log reduction is required for a surface-disinfection compound and a >3-fold log reduction for a hand-disinfection compound.

Q: What does the source list for `CC1(C)CC(C)(C)CC(C)(N)C1.CS(=O)(=O)O` [Neramexane mesylate]?
A: % Reduction (Propionibacterium acnes; exposure time 30 sec): 91.6%; Concentration of Organism (CFU/mL) (Propionibacterium acnes; exposure time 30 sec): 1.8E+04 CFU/mL; Log Reduction (Propionibacterium acnes; exposure time 30 sec): 1.1; % Reduction (Propionibacterium acnes; exposure time 1 min): 79.0%; Concentration of Organism (CFU/mL) (Propionibacterium acnes; exposure time 1 min): 4.4E+04 CFU/mL; Log Reduction (Propionibacterium acnes; exposure time 1 min): 0.7; % Reduction (Propionibacterium acnes; exposure time 5 min): 100.0%; Concentration of Organism (CFU/mL) (Propionibacterium acnes; exposure time 5 min): <10 CFU/mL; Log Reduction (Propionibacterium acnes; exposure time 5 min): 4.3; log-reduction ([1]; 0.1%, contact time 5 min): <1.41; log-reduction ([1]; 0.1%, contact time 30 min): <1.41; log-reduction ([1]; 0.1%, contact time 6 h): <1.41; log-reduction ([1]; 0.1%, contact time 24 h): <1.41; log-reduction ([1]; 0.5%, contact time 5 min): <1.41; log-reduction ([1]; 0.5%, contact time 30 min): <1.41; log-reduction ([1]; 0.5%, contact time 6 h): 2.6; log-reduction ([1]; 2.0%, contact time 5 min): <1.41; log-reduction ([1]; 2.0%, contact time 6 h): >5.48; log-reduction ([1]; 2.0%, contact time 24 h): >5.48; log-reduction ([1]; 5.0%, contact time 5 min): 4.33; log-reduction ([1]; 5.0%, contact time 30 min): >5.48; log-reduction ([1]; 5.0%, contact time 6 h): >5.48; log-reduction ([1]; 5.0%, contact time 24 h): >5.48
